Reference: the NIST ThermoML archive (doi:10.1016/j.jct.2016.06.020)
± gives the expanded uncertainty stated by the source.

Columns and labels:
[1] = Molar enthalpy of transition or fusion; conditions: Crystal; DSC
[2] = Crystal; DTA

Molar enthalpy of transition or fusion [1]: 4.97 ± 0.167 kcal/mol
Normal melting temperature [2]: 118.6 ± 0.6 °C
SMILES: CCN1C(=O)N(C)[C@@H]2[C@H]1N(C)C(=O)N2CC (racemic)
